Experimental data taken from patent US12186330B2, “Compositions for improving cell viability and methods of use thereof” (Amylyx Pharmaceuticals Inc., priority 2013, dated 2025).
Several values for one entry are separate records, joined by “and”; a condition that tells them apart may be missing. Equal entries are not always repeated.

Key:
[1] = tested on: rat cortical neuron culture; experiment: Cell viability by PrestoBlue after hydrogen peroxide exposure, peroxide exposure neuronal cell model; format: cell-based; details: for protection of cell viability against peroxide exposure (FIG. 1, significance): PrestoBlue, H2O2 exposure, rat cortical neuron culture
Method: (§1) Cortical mixed cultures were prepared from E18 Wistar rat embryos (Laboratory Animal Center, Kuopio, Finland). The cortices were dissected out and the tissue was cut to small pieces. The cells were separated by 15-min incubation with DNase and papain. The cells were collected by centrifugation (1500 rpm, 5 min). The tissue was triturated with a pipette and the cells were plated (3×10^5 cells/cm^2) on poly-L-lysine coated 48 wells in MEM supplemented with 2 g/l glucose, 2 mM glutamine, 0.1 μg/ml gentamicin, and 10% heat-inactivated horse serum (HS-HI) and […] bovine serum (FBS-HI). After three days in vitro, medium containing MEM with supplements and 5% both sera was changed to the cells. On day 6 in vitro, the unwanted cell division was inhibited by adding cytosine arabinoside (10 μM final concentration) for 24 h. The cultures were refed with MEM with supplements and 5% HS-HI before experiments.
(§2) The wells in good shape were chosen for experiment on day 10 in vitro. Test compounds were diluted in MEM with supplements and 5% HS-HI. 24 h later, 300 μM NMDA for 24 h was used as a control for total neuronal death, and H2O2 for 1 h was used to induce approximately 30-60% cell death. DFX (100 μM) was used as a potential positive control for inhibition of H2O2-induced cell death. Wells treated with medium only served as 0-control. Test compounds were pipetted to the cells 24 h before adding H2O2. After 60 min, the medium was removed and media containing the compounds was pipetted to the wells for 24 h.
After the cell culture medium was collected for LDH measurement, 100 μl PrestoBlue solution (1:10 dilution of PrestoBlue reagent (Invitrogen, # A13261, lot 915815C) in culture medium) was added to the wells for 1 h incubation at +37° C. CO2 incubator. Fluorescence at 560 nm excitation/615 nm emission was measured using Victor fluororeader (PerkinElmer).
(§3) The number of wells per compound concentration used was 6 (n=6). One (1) concentration of 100 μM TUDCA and 1 mM 4-PBA separately and together were studied. Statistical analysis were calculated on Microsoft excel. The values were analyzed two-tailed, equal variance t-tests comparing all conditions to all other conditions.

[2] = tested on: rat cortical neuron culture; experiment: Cell death by LDH release after hydrogen peroxide exposure, peroxide exposure neuronal cell model; format: cell-based; details: for Cell Death Evaluated By LDH Following H2O2 Exposure, Average (%): compounds added 24 h before and for 24 h after, TUDCA 100 uM, 4-PBA 1 mM, DFX 100 uM, n=6, No Treatment = 0%; for protection against cell death after peroxide exposure (FIG. 2, significance): LDH, H2O2 exposure, rat cortical neuron culture
Method: as §1, §2
After 24 h the culture media of all wells was collected and possible cell debris was removed by centrifugation (13 000 rpm, 3 min). A-100-μl aliquot was pipetted into a micro titer plate as duplicates, and equal amount of LDH reagent was pipetted to the wells. The absorbance at 340 nm was measured immediately using a 3-min kinetic measurement protocol in Multiskan Ascent ELISA reader (Thermo, Finland). The change in absorbance/min was determined, which is directly proportional to the released LDH (=cell death).
as §3

[3] = H2O2 40 uM for 1 h, compounds added 24 h before and for 24 h after, TUDCA 100 uM, 4-PBA 1 mM, DFX 100 uM, n=6, No Treatment = 100%
[4] = Rattus norvegicus, Cortical neurone, H2O2 40 uM for 1 h, compounds added 24 h before and for 24 h after, TUDCA 100 uM, 4-PBA 1 mM, DFX 100 uM, n=6, No Treatment = 100%, read-out: Cell Viability Evaluated By PrestoBlue Following H2O2 Exposure, Average (%)

Structure (SMILES) | Cell Viability Evaluated By PrestoBlue Following H2O2 Exposure, Average (%) [1, 3] [%] | protection of cell viability against peroxide exposure (FIG. 1, significance) [1] | viability at 1000 µM [1, 4] [%] | Cell Death Evaluated By LDH Following H2O2 Exposure, Average (%) ([2]; H2O2 40 uM for 1 h) | protection against cell death after peroxide exposure (FIG. 2, significance) [2] | viability at 40 µM ([1]; Rattus norvegicus, Cortical neurone, 1 h, H2O2 40 uM for 1 h, no test compound (the text's 'control'), read-out: Cell Viability Evaluated By PrestoBlue, Average (%), H2O2 exposure alone) [%] | Cell Death Evaluated By LDH, Average (%), H2O2 exposure alone ([2]; H2O2 40 uM for 1 h, no test compound (the text's 'control')) [%] | Cell Death Evaluated By LDH, Average (%), NMDA negative control ([2]; NMDA 300 uM for 24 h, control for total neuronal death) [%] | viability at 100 µM [1, 4] [%]
O=C(O)CCCc1ccccc1 [4-PBA, 4-phenylbutyric acid] | 72.20 | does not provide significant protection | 72 | 46.5% and 46.47% | does not provide significant protection | – | – | – | –
OO [H2O2, hydrogen peroxide] | – | – | – | – | – | 48.6 | 62.48 | – | –
CN[C@H](CC(=O)O)C(=O)O [NMDA] | – | – | – | – | – | – | – | 100 | –
C[C@H](CCC(=O)NCCS(=O)(=O)O)[C@H]1CC[C@H]2[C@@H]3[C@@H](O)C[C@@H]4C[C@H](O)CC[C@]4(C)[C@H]3CC[C@]12C [TUDCA, tauroursodeoxycholic acid] | 58.59 | does not provide significant protection | – | 60.4% and 60.37% | does not provide significant protection | – | – | – | 59
